# Assay results taken from patent publication US20250152605A1, “METHOD AND DRUG FOR TREATING NEURONAL CEROID LIPOFUSCINOSIS” (priority 2021, published 2025).
# Tests used:
# [1] = tested on: CLN3^Δex7/8 neural stem cells; assay: Annexin V and propidium iodide apoptosis staining, flow cytometry; format: cell-based, human; conditions: treatment for 48 hours
# Procedure: (§1) In analyzing the mean fluorescence intensity of neural stem cells and neuronal staining or single cell establishment of NRK cells, flow cytometry was used: the cell medium was aspirated off, after wash with dPBS once, the digestive enzyme corresponding to the cell type was added to digest into single cells; the supernatant was removed by centrifugation, and the cells were resuspended with 1 mL of fresh medium; the cell suspension with filtered through 40 μm filter membrane and the single cell filtrate was collected; the single cell filtrate was transferred to a flow tube and analyzed or sorted using BD FACS Aria III; in the analysis, the fluorescence intensity of 1×10^4 cells for each sample was analyzed to obtain the mean fluorescence intensity (MFI); for sorting, cells were received in 96 well plates with medium, one cell per well to establish a cell line.
# Then, whether compound G causes cytotoxicity in neural stem cells was examined. Cell apoptosis was detected after compound G treatment with Annexin V and propidium iodide (PI) staining and analyzed with flow cytometry. Annexin V positive and PI negative represented early apoptotic cells, while Annexin V positive and PI positive represented late apoptotic cells.
# [2] = tested on: CLN3^Δex7/8 human neural stem cells; assay: Transcriptome sequencing (RNA-seq) of human neural stem cells; format: cell-based; conditions: 6 μM, 6 hours
# Procedure: In order to detect the effect of Compound G on treated cells, transcriptome sequencing was performed on neural stem cells treated with Compound G, with specific steps as follows: CLN3^Δex7/8 human neural stem cells were seeded into 2% Matrigel-coated 6-well cell plates to a cell density of 80%; fresh cell culture medium containing 6 μM Compound G or an equal volume of DMSO was added, and each treatment condition for two biological replicates; the neural stem cells were incubated in a 37° C. cell culture incubator for 6 hours; the cell culture medium was aspirated, following by washing once with dPBS, and then intracellular RNA was extracted by Qiagen RNeazy Mini Plus Kit; the extracted RNA was sent to ANNOROAD for RNA quality testing first. The purity of RNA was tested using a Nanophotometer spectrophotometer; the concentration of RNA was tested using a Qubit 3.0 Flurometer; the integrity of the RNA was tested using the Aligent 2100 RNA Nano 6000 Assay kit; 2 μg of RNA was taken from each qualified sample for library construction and quantified using Qubit 3.0 Flurometer.
# After diluting the library-building samples to 1 ng/μL, the Aligent 2100 RNA Nano 6000 Assay kit and qPCR were used for quality detection; Illumina's Hiseq PE Cluster kit was used for clustering, and the Hiseq 2500 sequencing platform was used for paired-end sequencing to obtain 150 bp paired-end sequencing reads; FastQC software was used to evaluate the quality of the raw data obtained from sequencing, then TrimGalore was used to remove adapter sequences and low-quality sequences, and filtered data was obtained for subsequent analysis.
# Comparation between filtered data and human reference genome hg38 was carried with HISAT2, resulting in Bam file, and the number of counts aligned to each gene was counted by FeatureCount, with gtf (GRCh38.92) file provided by Ensembl as annotation. Ensembl IDs were converted to gene names by BiomaRt R package. The genes with fold change>2 and corrected p<0.05 were screened as differential genes, through differential genes expression analysis with DESeq2 software.
# In order to explore the mechanism of Compound G in human neural stem cells, transcriptome sequencing experiments were conducted on wild-type human neural stem cells, CLN3^Δex7/8 human neural stem cells and CLN3^Δex7/8 human neural stem cells after treated with Compound G for 6 hours, and differentially expressed genes were analyzed. […] CLN3^Δex7/8 human neural stem cells treated and untreated with Compound G were clustered together (FIG. 29(b, c)). […] With regard to the RNA sequencing results, the effects of Compound G on the transcription level of TFEB, autophagy-related genes and lysosomal genes were also analyzed.
# [3] = tested on: Cln3 KO mice; assay: Rotarod test (roller experiment); format: in vivo, mouse; conditions: 4th day of testing
# Procedure: First, the roller experiment was conducted. Treatment of Compound G was continuously provided to the mice after weaned on day 21. When the wild-type mice, the Cln3 KO mice and the Compound G-treated Cln3 KO mice reached 4-5 months of age, roller training for 3 days was conducted, and test was conducted on the 4th day for the motor ability of the mice on the roller.
# [4] = tested on: CLN3^Δex7/8 human neurons; assay: Lysotracker staining of CLN3^Δex7/8 human neurons, flow cytometry; format: cell-based
# Procedure: as §1
# Studies above have shown that CLN3^Δex7/8 human neurons feature lysosomal acidity dysregulation. To investigate the effect of Compound G on lysosomal acidity in CLN3^Δex7/8 neurons, Lysotracker dye was used for staining and flow cytometry was used for analyzing the fluorescence intensity of Lysotracker dye in cells.
# [5] = tested on: mouse neural stem cells; assay: qRT-PCR of autophagy and lysosome-related genes in mouse neural stem cells; format: cell-based; conditions: 6 hours
# Procedure: The cells in the cell-culture dish were collected, extracted using AxyPrep Total RNA Mini Prep Kit or Qiagen AxyPrep Total RNA Mini Prep Kit, and the extracted RNA concentration is measured using Nanodrop; the extracted mRNA was reverse transcribed into cDNA by Transgen's EasyScript® One-Step gDNA Removal and cDNA Synthesis SuperMix and the primers used for reverse transcription were Oligo dT primers; the completion of reverse transcription followed by qRT-PCR reaction through PerfectStart™ Green qPCR SuperMix to detect the expression of the target gene; the qRT-PCR reaction was performed on the Bio-Rad CFX96 Real-Time PCR system; see Table 2 and Table 3 for the 20 μL qRT-PCR reaction system and reaction procedures; data analysis was performed in Prism 7 software using the 2^−ΔΔCt process with GAPDH as internal reference for relative quantification of the expression of the target gene.
# After treating primary (a) neural stem cells and (b) neurons of Cln3 KO) mice for 6 hours, the mRNA was extracted from the cells, reverse-transcribed into cDNA, and transcription levels of autophagy- and lysosome-related genes were detected using qRT-PCR (n=3).
# It was speculated from this that the known target FXR of Compound G was expressed at low or no levels in neural lineage cells. […]
smiles,measurement,setting,value
"C/C=C1\C(=O)C[C@H]2[C@@H]3CCC4=CC(=O)CC[C@]4(C)[C@H]3CC[C@]12C [Compound G, (Z)-guggulsterone]",proportions of apoptotic cells (Annexin V / PI),[1],did not significantly change the proportions of apoptotic cells
same,"expression levels of NQO1, LPCAT1 and HLA-E",[2],all increased
same,gene expression profile (PCA analysis),[2],did not produce a significant impact
same,number of differential genes (fold change >2 and corrected p<0.05),[2],3
same,differential expression folds of NRF2 downstream genes other than NQO1,[2]; RNA sequencing,less than 2
same,expressions of multiple NRF2 downstream genes,[2]; RNA sequencing,elevated
same,transcription level of TFEB and most autophagy-related genes and lysosomal genes,[2]; RNA sequencing,no significant effects
same,falling time from the roller,[3],significantly extended
same,Lysotracker fluorescence intensity in CLN3^Δex7/8 human neurons,[4],increased significantly
same,expression level of the autophagy and lysosome-related genes,[5],no significant change
